Values of other authors, collected in patent publication US20240083845A1 (priority 2020, published 2024).
pKi: −log10 of the molar value.

Assays:
[1] = tested on: ten further coronavirus strains; settings: read-out: Ki values against ten further coronavirus strains; cited from earlier work
[2] = tested on: live virus; settings: cited from earlier work

Question: With PF-00835231 as the substance, how does the pKi [1] read?
Answer: 8.40 to 10.52

Question: What about the “activity in cell-based live virus assays” value [2] of the same substance?
Answer: ~1 µM
